The text below walks through data of ChEMBL document CHEMBL3792352, “3D-QSAR-aided design, synthesis, in vitro and in vivo evaluation of dipeptidyl boronic acid proteasome inhibitors and mechanism studies” (Bioorg Med Chem, 2016).

One assay deals with T1, Proteasome Macropain subunit MB1 (Homo sapiens, UniProt P28074).
T1 sequence (P28074 whole entry): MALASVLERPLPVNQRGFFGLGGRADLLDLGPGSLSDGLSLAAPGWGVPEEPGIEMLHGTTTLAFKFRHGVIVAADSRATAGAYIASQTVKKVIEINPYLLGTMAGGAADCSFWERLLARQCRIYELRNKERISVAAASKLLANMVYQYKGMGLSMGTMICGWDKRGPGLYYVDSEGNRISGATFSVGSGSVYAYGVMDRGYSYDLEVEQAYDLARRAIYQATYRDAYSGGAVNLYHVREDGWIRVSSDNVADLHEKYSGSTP
In words: Inhibition of chymotrypsin like activity of human 20S proteasome using Suc-Leu-Leu-Val-Tyr-AMC as substrate preincubated for 10 mins followed by substrate addition measured after 1 hr by spectrofluorimetric analysis. The settings on record: read-out: IC50.
For `CCC(C)[C@H](NC(=O)C1CCCc2ccccc21)C(=O)N[C@@H](CC(C)C)B1OC2C[C@@H]3C[C@@H](C3(C)C)[C@]2(C)O1` (stereo partly drawn), the IC50 was found to be 17.2 nM.
Still for that read-out and setting: as for `CC(C)C[C@H](NC(=O)[C@H](Cc1c[nH]c2ccccc12)NC(=O)C1CCCc2ccccc21)B1OC2C[C@@H]3C[C@@H](C3(C)C)[C@]2(C)O1` (stereo partly drawn), the figure is 3.67 nM.
Same read-out and setting: to `CC(C)C[C@H](NC(=O)[C@H](Cc1c[nH]c2ccccc12)NC(=O)OCc1ccccc1)B1OC2C[C@@H]3C[C@@H](C3(C)C)[C@]2(C)O1` (stereo partly drawn) belongs 41.2 nM; to `CC(C)C[C@H](NC(=O)[C@H](Cc1cccc2ccccc12)NC(=O)c1cccc2c1CCCC2)B1OC2C[C@@H]3C[C@@H](C3(C)C)[C@]2(C)O1` (stereo partly drawn), 1.34 nM.
Regarding `CC(=O)N[C@@H](Cc1ccccc1)C(=O)N[C@@H](Cc1ccc(C)cc1)B1OC2C[C@@H]3C[C@@H](C3(C)C)[C@]2(C)O1` (stereo partly drawn), the IC50 amounted to 2.73 nM.
Still for that read-out and setting: as for `CC(C)C[C@H](NC(=O)[C@H](Cc1cccc2ccccc12)NC(=O)c1ccc2ccccc2c1)B1OC2C[C@@H]3C[C@@H](C3(C)C)[C@]2(C)O1` (stereo partly drawn), the figure is 2.46 nM; as for `CC(C)C[C@H](NC(=O)[C@H](Cc1ccc(C(F)(F)F)cc1)NC(=O)c1cc(Cl)ccc1Cl)B(O)O`, 8.32 nM; as for `O=C(N[C@@H](Cc1ccccc1)C(=O)N[C@@H](Cc1ccc(F)cc1)B(O)O)c1cnccn1`, 4.37 nM.
On the same count and under the same terms, to `CC(C)C[C@H](NC(=O)[C@H](Cc1ccccc1)NC(=O)C1CCCc2ccccc21)B1OC2C[C@@H]3C[C@@H](C3(C)C)[C@]2(C)O1` (stereo partly drawn) belongs 4.18 nM.
The same measure, in the same setting: as for `Cc1ccc(C[C@H](NC(=O)[C@H](CC(C)C)NC(=O)OC(C)(C)C)B2OC3C[C@@H]4C[C@@H](C4(C)C)[C@]3(C)O2)cc1` (stereo partly drawn), the figure is 471 nM; as for `CCCC[C@H](NC(=O)[C@H](CC(C)C)NC(=O)OC(C)(C)C)B1OC2C[C@@H]3C[C@@H](C3(C)C)[C@]2(C)O1` (stereo partly drawn), 49.5 nM.
For `CC(C)(C)OC(=O)N[C@@H](Cc1ccc(O)cc1)C(=O)N[C@@H](Cc1ccccc1)B1OC2C[C@@H]3C[C@@H](C3(C)C)[C@]2(C)O1` (stereo partly drawn), the IC50 was 114 nM.
With `CC(C)C[C@H](NC(=O)[C@H](Cc1ccccc1)NC(=O)[C@H]1CCCc2ccccc21)B1OC2C[C@@H]3C[C@@H](C3(C)C)[C@]2(C)O1` (stereo partly drawn), the IC50 was 1.12 nM.
On the same count and under the same terms, as for `CC(C)C[C@H](NC(=O)[C@H](Cc1ccc2ccccc2c1)NC(=O)c1cccc2c1CCCC2)B1OC2C[C@@H]3C[C@@H](C3(C)C)[C@]2(C)O1` (stereo partly drawn), the figure is 1.16 nM.
For the molecule `CC(C)C[C@H](NC(=O)[C@H](Cc1cc(C(F)(F)F)cc(C(F)(F)F)c1)NC(=O)c1cc(Cl)ccc1Cl)B(O)O`, the IC50 was determined as 25 nM.
On to `CC(C)C[C@H](NC(=O)OC(C)(C)C)C(=O)N[C@@H](Cc1ccccc1)B1OC2C[C@@H]3C[C@@H](C3(C)C)[C@]2(C)O1` (stereo partly drawn), for which the IC50 stood at 120 nM.
Regarding `CC(C)C[C@H](NC(=O)[C@H](Cc1ccccc1)NC(=O)c1cccc2c1CCCC2)B1OC2C[C@@H]3C[C@@H](C3(C)C)[C@]2(C)O1` (stereo partly drawn), the IC50 turned out to be 0.76 nM.
For `CC(C)C[C@H](NC(=O)[C@H](Cc1ccccc1)NC(=O)c1cnccn1)B1OC2C[C@@H]3C[C@@H](C3(C)C)[C@]2(C)O1` (stereo partly drawn), the IC50 was 1.92 nM.
Consider `CC(C)C[C@H](NC(=O)[C@H](CC(C)C)NC(=O)c1cccc2c1CCCC2)B1OC2C[C@@H]3C[C@@H](C3(C)C)[C@]2(C)O1` (stereo partly drawn), for which the IC50 was 1.15 nM.
The same measure, in the same setting: as for `Cc1ccc(C[C@H](NC(=O)[C@H](Cc2ccccc2)NC(=O)C2CCc3ccccc3C2)B2OC3C[C@@H]4C[C@@H](C4(C)C)[C@]3(C)O2)cc1` (stereo partly drawn), the figure is 1.16 nM; as for `CC(C)C[C@H](NC(=O)[C@H](Cc1ccc2ccccc2c1)NC(=O)C1CCCc2ccccc21)B1OC2C[C@@H]3C[C@@H](C3(C)C)[C@]2(C)O1` (stereo partly drawn), 7.63 nM.
On the same count and under the same terms, as for `CC(C)C[C@H](NC(=O)[C@H](CC(C)C)NC(=O)C1CCCc2ccccc21)B1OC2C[C@@H]3C[C@@H](C3(C)C)[C@]2(C)O1` (stereo partly drawn), the figure is 14.2 nM; as for `CC(C)C[C@H](NC(=O)[C@H](Cc1ccccc1)NC(=O)C1CCc2ccccc2C1)B1OC2C[C@@H]3C[C@@H](C3(C)C)[C@]2(C)O1` (stereo partly drawn), 1.46 nM.
For `CCCC[C@H](NC(=O)[C@H](Cc1ccccc1)NC(=O)[C@H]1CCCc2ccccc21)B1OC2C[C@@H]3C[C@@H](C3(C)C)[C@]2(C)O1` (stereo partly drawn), the IC50 amounted to 1.92 nM.
Same read-out and setting: to `CC(C)C[C@H](NC(=O)[C@H](Cc1cccc2ccccc12)NC(=O)C1CCCc2ccccc21)B1OC2C[C@@H]3C[C@@H](C3(C)C)[C@]2(C)O1` (stereo partly drawn) belongs 4.26 nM; to `Cc1ccc(C[C@H](NC(=O)[C@H](Cc2ccccc2)NC(=O)[C@H]2CCCc3ccccc32)B2OC3C[C@@H]4C[C@@H](C4(C)C)[C@]3(C)O2)cc1` (stereo partly drawn), 6.7 nM.
Same read-out and setting: as for `Cc1ccc(C[C@H](NC(=O)[C@H](Cc2ccccc2)NC(=O)c2cnccn2)B2OC3C[C@@H]4C[C@@H](C4(C)C)[C@]3(C)O2)cc1` (stereo partly drawn), the figure is 4.85 nM; as for `Cc1ccc(C[C@H](NC(=O)[C@H](Cc2c[nH]c3ccccc23)NC(=O)OCc2ccccc2)B2OC3C[C@@H]4C[C@@H](C4(C)C)[C@]3(C)O2)cc1` (stereo partly drawn), 3.34 nM; as for `CC(C)C[C@H](NC(=O)[C@@H](NC(=O)C1CCCc2ccccc21)C(C)C)B1OC2C[C@@H]3C[C@@H](C3(C)C)[C@]2(C)O1` (stereo partly drawn), 39 nM.
On the same count and under the same terms, as for `CC1(C)[C@@H]2CC3OB([C@H](Cc4ccc(F)cc4)NC(=O)[C@H](Cc4ccccc4)NC(=O)[C@H]4CCCc5ccccc54)O[C@@]3(C)[C@H]1C2` (stereo partly drawn), the figure is 1.26 nM; as for `CC(C)C[C@H](NC(=O)[C@H](Cc1ccc(O)cc1)NC(=O)OC(C)(C)C)B1OC2C[C@@H]3C[C@@H](C3(C)C)[C@]2(C)O1` (stereo partly drawn), 16.4 nM.
Regarding `CC1(C)[C@@H]2CC3OB([C@H](Cc4ccccc4)NC(=O)[C@H](Cc4ccccc4)NC(=O)C4CCc5ccccc5C4)O[C@@]3(C)[C@H]1C2` (stereo partly drawn), the IC50 was 3.37 nM.
Same read-out and setting: to `CCCC[C@H](NC(=O)[C@H](Cc1ccccc1)NC(C)=O)B1OC2C[C@@H]3C[C@@H](C3(C)C)[C@]2(C)O1` (stereo partly drawn) belongs 8.46 nM; to `CC(C)C[C@H](NC(=O)[C@H](Cc1ccc(C(F)(F)F)cc1)NC(=O)c1cnccn1)B(O)O`, 42.6 nM; to `Cc1cnc(C(=O)N[C@@H](Cc2ccccc2)C(=O)N[C@@H](CC(C)C)B(O)O)cn1`, 26.2 nM.
The same measure, in the same setting: as for `CC(C)C[C@H](NC(=O)[C@H](Cc1ccccc1)NC(=O)[C@@H]1CCCc2ccccc21)B1OC2C[C@@H]3C[C@@H](C3(C)C)[C@]2(C)O1` (stereo partly drawn), the figure is 5.17 nM; as for `CC(C)C[C@H](NC(=O)[C@H](Cc1ccc2ccccc2c1)NC(=O)[C@H]1CCCc2ccccc21)B1OC2C[C@@H]3C[C@@H](C3(C)C)[C@]2(C)O1` (stereo partly drawn), 6.12 nM; as for `CC(=O)N[C@@H](Cc1ccccc1)C(=O)N[C@@H](CC(C)C)B1OC2C[C@@H]3C[C@@H](C3(C)C)[C@]2(C)O1` (stereo partly drawn), 2.34 nM.
The same measure, in the same setting: to `CC1(C)[C@@H]2CC3OB([C@H](Cc4ccccc4)NC(=O)[C@H](Cc4ccccc4)NC(=O)[C@H]4CCCc5ccccc54)O[C@@]3(C)[C@H]1C2` (stereo partly drawn) belongs 5.24 nM; to `CC(C)C[C@H](NC(=O)[C@@H](NC(=O)c1cccc2c1CCCC2)C(C)C)B1OC2C[C@@H]3C[C@@H](C3(C)C)[C@]2(C)O1` (stereo partly drawn), 6.96 nM; to `CC1(C)[C@@H]2CC3OB([C@H](Cc4ccc(F)cc4)NC(=O)[C@H](Cc4ccccc4)NC(=O)c4cnccn4)O[C@@]3(C)[C@H]1C2` (stereo partly drawn), 3.21 nM.

Still in this assay, the particulars now being: read-out: pIC50 (converted).
For `CC(C)C[C@H](NC(=O)[C@H](Cc1ccccc1)NC(=O)c1cccc2c1CCCC2)B1OC2C[C@@H]3C[C@@H](C3(C)C)[C@]2(C)O1` (stereo partly drawn), the IC50 is 1.32 nM.

Test system in a further assay: not listed separately
In words: Cytotoxicity against human RPMI8226 cells assessed as cell viability after 72 hrs by CellTiter 96 aqueous one solution cell proliferation assay. Type of assay: functional, RPMI-8226.
Conditions: not given
In the case of `CC(C)C[C@H](NC(=O)[C@H](Cc1ccc(C(F)(F)F)cc1)NC(=O)c1cc(Cl)ccc1Cl)B(O)O`, the Activity is listed as 233.7%.
Same read-out and setting: as for `CC(C)C[C@H](NC(=O)[C@H](Cc1ccccc1)NC(=O)c1cnccn1)B(O)O` [BORTEZOMIB], the figure is 11.2%.

Test system in the next assay: not listed separately
In words: Cytotoxicity against human ARH77 cells assessed as cell viability after 72 hrs by CellTiter 96 aqueous one solution cell proliferation assay. Type of assay: functional, ARH-77.
Conditions: not given
Regarding `CC(C)C[C@H](NC(=O)[C@H](Cc1ccc(C(F)(F)F)cc1)NC(=O)c1cc(Cl)ccc1Cl)B(O)O`, the Activity came out at 98.15%.
For `CC(C)C[C@H](NC(=O)[C@H](Cc1ccccc1)NC(=O)c1cnccn1)B(O)O` [BORTEZOMIB], the Activity came out at 9.57%.

Test system in the next assay: not listed separately
In words: Cytotoxicity against human U266B1 cells assessed as cell viability after 72 hrs by CellTiter 96 aqueous one solution cell proliferation assay. Type of assay: functional, U-266.
Conditions: not given
For the molecule `CC(C)C[C@H](NC(=O)[C@H](Cc1ccc(C(F)(F)F)cc1)NC(=O)c1cc(Cl)ccc1Cl)B(O)O`, the Activity amounted to 100.4%.
With `CC(C)C[C@H](NC(=O)[C@H](Cc1ccccc1)NC(=O)c1cnccn1)B(O)O` [BORTEZOMIB], the Activity turned out to be 11.63%.
